Columns and labels:
[1] = system: 5'-T8iG4T isoguanine pentaplex, (T8iG4T)5 (DNA, other, 2'-deoxyisoguanine at 9, 10, 11, 12 (written as G)) TTTTTTTTGGGGT; assay: UV-vis titration, Soret band 404 nm; settings: 20 mM NaCl; 40 mM Tris-HCl pH 8.0, 1% DMF, 0.05% Triton X-100, 25 °C; 0.5 μM heme
[2] = system: 5'-T8iG4T isoguanine quadruplex, (T8iG4T)4 (DNA, other, 2'-deoxyisoguanine at 9, 10, 11, 12 (written as G)) TTTTTTTTGGGGT; assay: UV-vis titration, Soret band; settings: 20 mM KCl; 40 mM Tris-HCl pH 8.0, 1% DMF, 0.05% Triton X-100, 25 °C; highest DNA tested 70 μM
[3] = system: 5'-T8G4T G-quadruplex, (T8G4T)4 (DNA, G4) TTTTTTTTGGGGT; assay: UV-vis titration, Soret band 404 nm; settings: 40 mM Tris-HCl pH 8.0, 1% DMF, 0.05% Triton X-100, 25 °C, 0.5 μM heme

Kd [1]: 1.28 ± 0.05 µM | binding [2]: no | Kd ([3]; 20 mM KCl): 7.89 ± 0.96 µM | Kd ([3]; 20 mM NaCl): 3.22 ± 0.43 µM
SMILES: C=CC1=C(C)C2=Cc3c(C=C)c(C)c4[n]3[Fe]([Cl])[n]3c(c(C)c(CCC(=O)O)c3=CC3=NC(=C4)C(C)=C3CCC(=O)O)=CC1=N2

From paper PMC4417173 (2015)
